PubChem BioAssay (NCI)
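Grown in 96-well plates, cells were treated for 48 hours with each compound at five concentrations. Insufficient inhibition: endpoint recorded as highest concentration tested. TGI denotes the concentration required for complete inhibition of growth.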

Experiments:
Assay in all cases: NCI tumour cell line growth inhibition, 48 h
[1] = tested on: MDA-MB-231 breast
[2] = tested on: A498 renal
[3] = tested on: HOP-92 NSCLC
[4] = tested on: U251 CNS
[5] = tested on: SF-268 CNS
[6] = tested on: NCI-H226 lung
[7] = tested on: TK-10 renal
[8] = tested on: HCT-116 colon
[9] = tested on: SK-MEL-5 melanoma
[10] = tested on: HT29 colon
[11] = tested on: MOLT-4 leukemia
[12] = tested on: SR leukemia
[13] = tested on: OVCAR-3 ovarian
[14] = tested on: RXF 393 renal
[15] = tested on: COLO 205 colon
[16] = tested on: SF-539 CNS
[17] = tested on: OVCAR-5 ovarian
[18] = tested on: IGROV1 ovarian
[19] = tested on: T-47D breast

SMILES	TGI [1] [µM]	TGI [2] [µM]	TGI [3] [µM]	TGI [4] [µM]	TGI [5] [µM]	TGI [6] [µM]	TGI [7] [µM]	TGI [8] [µM]	TGI [9] [µM]	TGI [10] [µM]	TGI [11] [µM]	TGI [12] [µM]	TGI [13] [µM]	TGI [14] [µM]	TGI [15] [µM]	TGI [16] [µM]	TGI [17] [µM]	TGI [18] [µM]	TGI [19] [µM]
C/C(=N/NC(=S)N(C)CCc1ccccn1)c1cnccn1	21.2	> 100	21.2	12.3	14.9	0.0122	14.8	18	17.8	11.9	> 71.1	> 100	19	13.9	21.8	28	22	–	–
CS(=O)(=O)N1CC(CCl)c2ccc(NCCN)cc21 (stereo not drawn)	> 100	> 100	74.6	> 100	> 100	> 100	> 100	> 100	> 100	> 100	> 100	–	> 100	> 100	> 100	> 100	> 100	49.8	> 100
Brc1cccc(Nc2ncnc3sc4c(c23)CCC(Nc2cccc(Br)c2)C4)c1 (stereo not drawn)	> 100	–	> 100	> 100	> 100	–	> 100	> 100	> 100	> 100	> 100	–	> 100	> 100	> 100	–	> 100	> 100	> 100
O=S(Nc1ccccc1)c1ccc(-c2ccccc2)cc1 (stereo not drawn)	> 100	–	–	> 100	> 100	> 100	> 100	> 100	> 100	> 100	> 100	> 100	> 100	–	> 100	> 100	> 100	> 100	> 100
COc1cc(CNc2nc3ccccc3n2Cc2ccccc2)cc(CN2CCOCC2)c1O	38.1	39.2	56.3	93.1	> 100	82.8	65.9	41.7	34.2	70.4	> 100	–	56.6	47.7	40.1	34.5	87.8	> 100	> 100
CN(C)CCn1c(=O)oc2cc(C(=O)CN3CCOCC3)ccc21	> 100	–	–	> 100	> 100	> 100	> 100	> 100	> 100	> 100	> 100	> 100	> 100	> 100	> 100	> 100	> 100	> 100	–
Nc1ccc2ncc(Nc3ccc(F)cc3)nc2c1	–	–	–	> 100	> 100	> 100	> 100	> 100	> 100	> 100	> 100	> 100	> 100	–	> 100	> 100	> 100	–	–
